Measured values taken from patent US20090239884A1, “Methods of Treating Inflammation” (priority 2006, published 2009).
“Also recorded” adds a separate entry of the source.

Assays:
[1] = tested on: CD4+CD25− T cells; experiment: [3H]thymidine proliferation assay of CD4+CD25− T cells; assay type: cell-based, mouse
Description: Proliferation assays. T cell-depleted splenocytes (Tds) were obtained by negative selection with murine anti-CD4 and anti-CD8 microbeads (Miltenyi Biotec). Isolated CD4^+CD25^− T cells (5×10^4/well) were cultured in 96-well plates (Costar) with irradiated Tds (5×10^4/well) (2600 rad) in the presence or absence of soluble anti-CD3 mAb (0.7 μg/ml) (R&D Systems, Minneapolis, Minn.). DP (100 μM), IBMX (300 μM) or vehicle control (0.1% DMSO in media) were added at 0 hours. After 48 hours, 2 μCi per well of [^3H]thymidine (NEN, Waltham, Mass.) was added and cells were harvested 16 hours later using a semiautomated cell harvester and [^3H]thymidine incorporation determined by scintillation counting. Cell viability in suppression assays was determined using trypan blue (2.5%) at 64 hours of incubation.
In FIG. 22, purified CREM/ICER^+/+ or CREM/ICER^−/− derived CD4^+CD25^−T cells (5×10^4/well) were cocultured with irradiated T cell depleted splenocytes (5×10^4 well) presenting soluble anti-CD3 mAb (0.75 μg/ml) and the cultures were incubated with IBMX (300 μM), DP (100 μM), or vehicle (media) for 64 hours with [3H]thymidine added for the final 16 hours. The extent of proliferation was determined by [3H]thymidine incorporation at 64 hours and the data are presented as the mean cpm+SEM of an experiment run in triplicate. The results are representative of 2 independent experiments. […] (*p<0.05, **p<0.001; comparisons to vehicle were analyzed using a one way ANOVA followed by Bonferroni t-test and using an unpaired t-test for comparisons between DP and IBMX).

[2] = biological target: PDE8A1 catalytic domain (Homo sapiens, UniProt O60658); conditions: wild type; cited from earlier work
Chain of PDE8A1 catalytic domain (O60658 480-820 limits assumed): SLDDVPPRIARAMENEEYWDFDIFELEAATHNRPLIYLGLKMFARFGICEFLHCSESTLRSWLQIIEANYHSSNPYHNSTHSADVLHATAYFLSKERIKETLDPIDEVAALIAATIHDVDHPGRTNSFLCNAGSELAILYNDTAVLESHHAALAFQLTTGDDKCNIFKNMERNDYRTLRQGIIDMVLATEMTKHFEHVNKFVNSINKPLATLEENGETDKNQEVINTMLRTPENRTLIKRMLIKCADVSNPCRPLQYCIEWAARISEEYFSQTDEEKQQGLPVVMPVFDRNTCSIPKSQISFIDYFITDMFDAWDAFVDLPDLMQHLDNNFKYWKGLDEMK

[3] = tested on: CD4+CD25− T cells; experiment: qRT-PCR of PDE and cytokine genes in anti-CD3 activated CD4+CD25− T cells; assay type: cell-based, mouse; conditions: for changes in PDE gene expression: 20 minutes; for changes in PDE gene expression / increase of PDE4B gene expression: IBMX 300 μM; for PDE3B, 7A, and 8A expression: after DP and IBMX treatment
Description: Cell Culture. Mouse splenocytes were prepared and cultured as described. (Dong H, Osmanova V, Epstein P M, Brocke S. Phosphodiesterase 8 (PDE8) regulates chemotaxis of activated lymphocytes. Biochem Biophys Res Commun. 2006; 345:713-719) […] were separated from CD4^+CD25^+ Treg cells using a CD4^+CD25^+ Regulatory T Cell Isolation Kit (Miltenyi Biotec, Auburn, Calif.) and activated for 18 hours on plate-bound anti-CD3 mAb (5 μg/ml). Cells of the murine brain endothelium-derived cell line bEnd.3 (ATCC, Manassas, Va.) were seeded into 24-well plates (Costar, Cambridge, Mass.) in DMEM supplemented with 100 U/ml penicillin, […] streptomycin, 2 mM LGlutamine, and 10% fetal bovine serum (all Gibco, Carlsbad, Calif.). bEnd.3 assays were performed on confluent bEnd.3 monolayers.
Quantitative real-time RT-PCR analysis. 10 ng cDNA, or 2 μl cDNA for LCM studies, was amplified by qRT-PCR in a 25 μl reaction using SYBR Green PCR Master Mix (Applied Biosystems, Foster City, Calif.). Primers were designed using Primer Express software v3.0 and primer efficiency verified by slope analysis to be 100%±2.5%. qRT-PCR was performed using an ABI 7500 fast system and data analyzed using the Δ^ct method (SDS software v3.0). Amplicon sizes were approximately 100 bp.
Cell treatment. Confluent bEnd.3 monolayers were incubated with 200 ng/ml TNF-α (Peprotech, Rocky Hill, N.J.) at 37° c. for 2 hours. […] The selective PDE3 and PDE4 inhibitors motapizone and piclamilast were supplied by Drs. Christoff Zitt and Armin Hatzelmann (Altana Pharma, Konstanz, Germany). Con A-activated splenocytes or CD4^+CD25^− T cells activated with plate-bound anti-CD3 mAb were treated with the same reagents for 20, 45, or 90 minutes.
In FIGS. 21A-21B, purified CD4^+CD25^− T cells were activated with plate-bound anti-CD3 mAb for 18 hours followed by incubation with IBMX (300 μM), DP (100 μM) or vehicle (0.1% DMSO) for (A) 20 or (B) 90 minutes. PDE (A, Bi) and cytokine (Bii) gene expression was then analyzed by qRT-PCR with the data presented as the mean+SEM of triplicate determinations. The results are representative of 2 independent experiments (*p<0.05, **p<0.001; one way ANOVA followed by Bonferroni t-test).

[4] = tested on: bEnd.3 cells; experiment: intracellular cAMP ELISA in bEnd.3 cells; assay type: cell-based, mouse; conditions: DP 100 μM, IBMX 300 μM; for cAMP levels in bEnd.3 cells: 45 minutes
Description: Intracellular cAMP ELISAs. Activated bEnd.3 cells were treated as described above for 20, 45, or 90 minutes. cAMP levels were determined with a Correlate cAMP ELISA kit (Assay Designs, Ann Arbor, Mich.) using an ELISA reader (Bio-Rad, Hercules, Calif.) at 405 nm.
In FIG. 23B, IBMX (300 μM), DP (100 μM), or vehicle (0.1% DMSO) were added to the bEnd.3 cells for the final 20, 45, and 90 minutes of TNF-α exposure and the cellular cAMP content analyzed by ELISA. The values are given as the mean±SEM of an experiment run in duplicate with the results representative of 2 independent experiments (*p<0.05, **p<0.001; one way ANOVA followed by Bonferroni t-test for comparisons between vehicle and DP or IBMX and an unpaired t-test for comparisons between DP and IBMX).

[5] = tested on: T1, PDE8A; conditions: expressed forms of full length cDNAs for PDE8; cited from earlier work
T1 construct: other: expressed forms of full length cDNAs for PDE8

[6] = tested on: PDE8A; conditions: expressed forms of PDE8A; read-out: reported IC50s, PDE8A; cited from earlier work
[7] = 64 hours, DP 100 μM, IBMX 300 μM

SMILES | T cell proliferation ([3H]thymidine incorporation) [1, 7] | sensitivity of PDE8A1 catalytic domain to inhibition [2] | changes in PDE gene expression ([3]; DP 100 μM) | increase of PDE4B gene expression ([3]; 90 minutes, DP 100 μM) [fold] | PDE3B, 7A, and 8A expression [3] | cAMP levels in bEnd.3 cells [4] | inhibition of expressed forms of PDE8 [5] | inhibition of proliferation, DP compared with IBMX ([1]; 64 hours, DP 100 μM, IBMX 300 μM, listed as DP) | effect of Crem gene deletion (CREM/ICER−/− T cells) on DP mediated suppression of proliferation ([1]; DP 100 μM) | viability of T cells ([1]; trypan blue at 64 hours, DP treatment) | IC50 [2] [µM] | decrease of IL-2 gene expression ([3]; 90 minutes, DP 100 μM) [fold] | decrease of TNF-α gene expression ([3]; 90 minutes, DP 100 μM) [fold] | increase of cAMP levels in bEnd.3 cells ([4]; within 20 minutes) | IC50 [6] [µM]
CC(C)Cn1c(=O)n(C)c(=O)c2[nH]cnc21 [IBMX, 3-isobutyl-1-methylxanthine] | potently suppressed | insensitive | No significant changes | 5 | unchanged | significantly increased | resistant | – | – | – | – | – | – | – | –
OCCN(CCO)c1nc(N2CCCCC2)c2nc(N(CCO)CCO)nc(N3CCCCC3)c2n1 [Dipyridamole, 2,2′,2″,2′″-(4,8-di(piperidin-1-yl)pyrimido[5,4-d]pyrimidine-2,6-diyl)bis(azanetriyl)tetraethanol] | potently suppressed | – | No significant changes | 8 | unchanged | significantly increased | – | more potently than IBMX; also recorded: greater | did not affect | not affected | ~6 | 2 | 3 | over 2 fold | 4 to 9
